Reference: PMC11375437, “Selective labelling of GBA2 in cells with fluorescent β-D-arabinofuranosyl cyclitol aziridines” (Chemical Science, 2024)

Target: T1, GBA2 (Mus musculus, UniProt Q69ZF3)
T1 construct: from tissue; host or cells: mouse brain homogenate
T1 sequence (Q69ZF3 1-918): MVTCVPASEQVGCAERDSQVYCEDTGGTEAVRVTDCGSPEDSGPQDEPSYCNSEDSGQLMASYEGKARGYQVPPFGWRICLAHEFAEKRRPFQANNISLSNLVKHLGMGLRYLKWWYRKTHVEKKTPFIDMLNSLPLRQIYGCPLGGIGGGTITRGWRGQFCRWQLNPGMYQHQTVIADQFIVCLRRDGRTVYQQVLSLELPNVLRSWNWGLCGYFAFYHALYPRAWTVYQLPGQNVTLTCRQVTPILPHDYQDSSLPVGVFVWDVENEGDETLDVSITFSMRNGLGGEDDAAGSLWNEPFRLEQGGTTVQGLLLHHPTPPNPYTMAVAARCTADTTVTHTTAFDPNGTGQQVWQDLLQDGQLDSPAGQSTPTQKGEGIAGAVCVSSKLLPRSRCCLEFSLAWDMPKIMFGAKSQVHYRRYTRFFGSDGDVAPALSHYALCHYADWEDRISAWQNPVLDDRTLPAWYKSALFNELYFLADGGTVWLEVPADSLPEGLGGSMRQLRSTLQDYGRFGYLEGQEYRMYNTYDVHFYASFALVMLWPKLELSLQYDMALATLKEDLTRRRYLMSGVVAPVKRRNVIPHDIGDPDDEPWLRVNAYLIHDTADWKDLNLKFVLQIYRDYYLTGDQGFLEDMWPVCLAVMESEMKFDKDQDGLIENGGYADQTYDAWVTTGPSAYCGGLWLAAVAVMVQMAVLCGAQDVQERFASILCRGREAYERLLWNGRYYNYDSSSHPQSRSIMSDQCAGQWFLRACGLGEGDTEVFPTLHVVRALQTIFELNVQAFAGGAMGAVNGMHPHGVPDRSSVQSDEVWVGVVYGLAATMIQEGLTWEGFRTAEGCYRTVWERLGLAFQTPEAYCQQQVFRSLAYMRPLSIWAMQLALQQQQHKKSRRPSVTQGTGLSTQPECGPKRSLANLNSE
Assay: Labelling of GBA2 orthologue in mice brain homogenates
Type: biochemical
Settings: 1 h at 37 °C; ABP 3 and 7 at 1 μM, ABP 4 and 5 at 2.5 μM
Description: GBA2 orthologs are highly conserved among different species. […] The labelling capability of β-D-Araf aziridine ABPs toward GBA2 orthologs in these species was therefore evaluated. Homogenates of zebrafish larvae or mice brain homogenates were incubated with β-D-Araf ABPs 3–5 or broad-spectrum ABP 7 (Fig. 4).
Fig. 4 Fluorescent gel images of selective labelling of GBA2 orthologues by β-D-Araf aziridine ABPs in different species. Cyclophellitol-aziridine ABP 7 (1 μM) and β-D-Araf ABPs (ABP 3 at 1 μM and ABP 4 and 5 at 2.5 μM) were incubated with homogenates of zebrafish (15 μg total protein) and mice brain (15 μg total protein) for 1 h at 37 °C. […]
were transferred to nitrocellulose membrane for western blotting. Ponceau S staining was used to show total protein loading. […]
2.12 Reactivity of β-D-Araf aziridines towards GBA2 orthologue in other species β-D-Araf aziridine ABP 3-5 or ABP 7 was incubated with homogenates of zebrafish (Danio rerio) larvae or mice brain for 1 h at 37 °C. […] The zebrafish homogenates were passed through a desalting column (in the same way as described for the irreversibility evaluation above) to remove interference from biological pigments when scanning at λEX 473 nm and λEM ≥ 510 nm for BODIPY green fluorescence. […]

`CN1/C(=C/C=C/C=C/C2=[N+](CCCCCC(=O)NCc3cn(CCCCCCCCN4[C@@H]5[C@H](CO)[C@@H](O)[C@H](O)[C@@H](O)[C@@H]54)nn3)c3ccccc3C2(C)C)C(C)(C)c2ccccc21` (stereo partly shown) [ABP 7] was tested, and the “Labelling selectivity in mice brain homogenates” value was “show cross-reactivity towards GBA1”.
